The values below are quoted from earlier work in US20210153530A1, “FOOD PROTECTING COMPOSITION FOR MEAT, MEAT PRODUCTS AND DAIRY PRODUCTS” (priority 2018, published 2021).

One series relates to moulds and yeasts. The note with it: raw pork, heat-treated and pasteurised.
In series [1] the test system is coliform microorganisms and arerobic spore-forming microorganisms. The note with it: raw pork goulash, heat-treated.

As for `N=C(N)N` [guanidium], in the series on moulds and yeasts, the “effect on growth of moulds and yeasts” value is “has an effect on the growth”. Also, in series [1], the “influence on coliform and aerobic spore-forming microorganisms” value is recorded as “not significantly influenced”.
